Square brackets hold non-standard residues; d marks the D form. Peptide text beside a SMILES is read from it. Gly(N-(CH2)6NH2) = NCCCCCCNCC(=O)O; Gly(N-2-aminoethyl) = NCCNCC(=O)O; Nspe = C[C@H](NCC(=O)O)c1ccccc1; Nphe = O=C(O)CNCc1ccccc1; Nlys = NCCCCNCC(=O)O
Tests used:
[1] = tested on: E. coli, P. aeruginosa, S. aureus and S. epidermidis; format: cell-based
Summary of the method: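 Peptoids (DMSO stock, final 2–100 μM, two-fold steps) were tested in triplicate against inocula at 0.5 McFarland (A650 0.07) diluted ten-fold in Iso-sensitest broth. Plates incubated 16 h at 37 °C, shaken; MIC from absorbance. Controls: ampicillin, DMSO series, sterile broth.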

[2] = set-up: method as in PMID 18287037; details: cited from earlier work
[3] = tested on: NIH 3T3 murine fibroblasts; set-up: method as in PMID 26849681; details: in vitro mammalian assays; cited from earlier work

Structure (SMILES)	MICs against the bacteria tested [1]	50% haemolytic dose (HD50) [2]	observed toxicity against NIH 3T3 murine fibroblasts [3]
NCCCCCCNCC(=O)N(CC(=O)N(CC(=O)N(CCCCCCN)CC(=O)N(CC(=O)N(CC(N)=O)Cc1ccccc1)Cc1ccccc1)Cc1ccccc1)Cc1ccccc1 [Peptoid 3, (NahNpheNphe)2] (H-[Gly(N-(CH2)6NH2)][Nphe][Nphe][Gly(N-(CH2)6NH2)][Nphe][Nphe]-NH2)	100 µM		
NCCCCNCC(=O)N(CC(=O)N(CC(=O)N(CCCCN)CC(=O)N(CC(=O)N(CC(N)=O)Cc1ccccc1)Cc1ccccc1)Cc1ccccc1)Cc1ccccc1 [Peptoid 6, (NLysNpheNphe)2] (H-[Nlys][Nphe][Nphe][Nlys][Nphe][Nphe]-NH2)	100 µM		
NCCNCC(=O)N(CC(=O)N(CC(=O)N(CCN)CC(=O)N(CC(=O)N(CC(N)=O)Cc1ccccc1)Cc1ccccc1)Cc1ccccc1)Cc1ccccc1 [Peptoid 9, (NaeNpheNphe)2] (H-[Gly(N-2-aminoethyl)][Nphe][Nphe][Gly(N-2-aminoethyl)][Nphe][Nphe]-NH2)	100 µM		
C[C@@H](c1ccccc1)N(CC(N)=O)C(=O)CN(C(=O)CN(CCCCCCN)C(=O)CN(C(=O)CN(C(=O)CNCCCCCCN)[C@@H](C)c1ccccc1)[C@@H](C)c1ccccc1)[C@@H](C)c1ccccc1 [Peptoid 12, (NahNspeNspe)2]	100 µM		
C[C@@H](c1ccccc1)N(CC(N)=O)C(=O)CN(C(=O)CN(CCCCN)C(=O)CN(C(=O)CN(C(=O)CN(CCCCN)C(=O)CN(C(=O)CN(C(=O)CN(CCCCN)C(=O)CN(C(=O)CN(C(=O)CNCCCCN)[C@@H](C)c1ccccc1)[C@@H](C)c1ccccc1)[C@@H](C)c1ccccc1)[C@@H](C)c1ccccc1)[C@@H](C)c1ccccc1)[C@@H](C)c1ccccc1)[C@@H](C)c1ccccc1 [Peptoid 13, (NLysNspeNspe)4] (H-[Nlys][Nspe][Nspe][Nlys][Nspe][Nspe][Nlys][Nspe][Nspe][Nlys][Nspe][Nspe]-NH2)		100 µM	5.1 µM
C[C@@H](c1ccccc1)N(CC(N)=O)C(=O)CN(C(=O)CN(CCCCN)C(=O)CN(C(=O)CN(C(=O)CNCCCCN)[C@@H](C)c1ccccc1)[C@@H](C)c1ccccc1)[C@@H](C)c1ccccc1 [Peptoid 15, (NLysNspeNspe)2] (H-[Nlys][Nspe][Nspe][Nlys][Nspe][Nspe]-NH2)	100 µM		
C[C@@H](c1ccccc1)N(CC(N)=O)C(=O)CN(C(=O)CN(CCN)C(=O)CN(C(=O)CN(C(=O)CNCCN)[C@@H](C)c1ccccc1)[C@@H](C)c1ccccc1)[C@@H](C)c1ccccc1 [Peptoid 18, (NaeNspeNspe)2]	100 µM		

Reference: paper PMC6072100, “Exploring the links between peptoid antibacterial activity and toxicity” (MedChemComm, 2017)
